Results: patent US20030195242A1, “Use of Cox-2 inhibitors to prevent recurrences of herpesvirus infections” (priority 2002, published 2003)

Experiments:
Type in all cases: in vivo, BALB/c mice
McKrae strain of HSV-1 [1] = experiment: Quantitation of viral DNA by PCR in cornea and trigeminal ganglion of latently infected mice (ASA); conditions: pooled from six mice
Excerpt: Quantitation of viral DNA in tissue homogenates was made using the polymerase chain reaction (PCR), as previously reported. See B. M. Gebhardt et al., “9-(4-hydroxybutyl)-N^2-phenylguanine (HBPG), a thymidine kinase inhibitor, suppresses herpes virus reactivation in mice,” Antiviral Res., vol. 30, pp. 87-94 (1996); and J. M. Hill et al., “Quantitative analysis of polymerase chain reaction products by dot blot,” Analyt. Biochem., vol. 235, pp. 44-48 (1996). In brief, the procedure involves comparing DNA extracted from experimental and control tissue samples containing viral DNA, and performing serial dilutions with DNA from homologous tissue homogenates of uninfected animals. Using a log dilution series and previously determined quantities of viral DNA, it is possible to obtain a series of curves which permit the sensitive and reproducible determination of viral DNA in experimental samples. The sensitivity of this procedure permits the determination of differences of 100 viral genome equivalents per sample. In each experimental series, standard curves were conducted along with the analyses of the tissue homogenates from experimental (drug treated) and control (placebo treated) mice.
(§1) To test the effect of acetylsalicylic acid (ASA) on reactivation of HSV induced by heat stress, two sets of experiments were performed. In one set, groups of mice with latent HSV were immersed in 43° C. water up to their necks for 10 minutes. Following the hyperthermic stress, the animals were dried and given an intraperitoneal (IP) injection of 0.1 mg of ASA (Sigma Chemical Co., St. Louis, Mo.) suspended in 0.1 ml saline. At 8 and 16 hours after hyperthermia, the animals were again treated with ASA. Control mice were given IP injections of saline on the same schedule. At 24 hr after hyperthermic stress, the eyes were swabbed, the mice were sacrificed, and the corneas and trigeminal ganglia analyzed for infectious virus and viral DNA.
(§2) In a second experiment, groups of mice were treated IP for 3 days prior to hyperthermic stress at 8 hr intervals on each of the 3 days. The animals were then heat stressed, treated immediately after stress with ASA, and treated at 8 and 16 hr after hyperthermic stress. Control mice were given IP injections of saline on the same schedule. Two additional groups of mice were prophylactically treated by oral administration of 0.1 mg ASA or saline on the same dose schedule. In each experiment, animals were subdivided into those which were hyperthermically stressed and those which were not stressed. As above, the eyes of these animals were swabbed at 24 hr after stress and then sacrificed for analysis of infectious virus and viral DNA in their corneas and trigeminal ganglia.

McKrae strain of HSV-1 [2] = experiment: Heat-stress reactivation of latent HSV-1 in mice: infectious virus in cornea and trigeminal ganglia homogenates (ASA)
Description: (§3) Ocular swabs were immersed in 0.2 ml of complete tissue culture medium consisting of RPMI-1640, 10% fetal bovine serum (FBS), and an antibiotic-antimycotic mixture (Life Technologies, Grand Island, N.Y.). The swabs in culture medium were stored at 4° C. until testing by plaque assay. The determination of infectious virus in the cornea and in the trigeminal ganglia of animals were performed in a similar manner. Pairs of corneas and ganglia from individual mice were placed in separate tubes in 0.2 ml of complete medium, homogenized, clarified by centrifugation at 14,000×g for 5 minutes and the supernatant tested for infectious virus on Vero cells.
(§4) Male BALB/c strain mice (The Jackson Laboratory, Bar Harbor, Me.) were infected at 5 weeks of age by topical application of 5×10^5 plaque forming units of the McKrae strain HSV-1 following superficial scratching of the cornea. Documentation of the success of viral infection was determined by culturing ocular swabs taken on days 3 and 5 after infection. Animals without infectious virus on both days 3 and 5 in both eyes were excluded from use in these experiments. Thirty days after infection the eyes were swabbed to establish that infectious virus was no longer present on the ocular surface. Groups of uninfected age and sex matched mice were used as control animals in this study.
as §1, §2
(§5) Control mice for each of these experiments included animals which were latent for HSV-1 but which were not heat stressed. Subsets of this control group included animals placebo-treated and animals treated with ASA. Two additional control groups of animals were those which were not latent for HSV-1, but which were either treated with placebo or ASA on the schedules outlined above.

McKrae strain of HSV-1 [3] = experiment: Heat-stress reactivation of latent HSV-1 in mice: infectious virus on ocular surface swabs (ASA)
Description: The McKrae strain of HSV-1 was propagated in Vero cells (ATCC No. CCL-81, American Type Culture Collection, Manassass, Va.), titered by viral plaque assay, and stored at −70° C. until used to infect animals.
as §3, §4, §1, §2, §5

McKrae strain of HSV-1 [4] = experiment: Heat-stress reactivation of latent HSV-1 in mice: infectious virus in the trigeminal ganglia (celecoxib); conditions: not stressed
Excerpt: (§6) To test the effect of a selective COX-2 inhibitor on recurrence of HSV, female BALB/c mice (The Jackson Laboratory, Bar Harbor, Me.) at 4 weeks of age were used. The strain of HSV and the method of propagation were as described in Example 1.
(§7) The mice were infected by the topical ocular route, and the establishment of a corneal infection was documented by slit lamp examination and ocular swabs on day 3 after infection. Only animals which were successfully infected were retained for use in these experiments. Thirty days after infection, groups of 15 latently infected and 15 uninfected mice were treated with the COX 2 inhibitor, celecoxib (G. D. Searle & Co., Skokie, Ill.). The dose of celecoxib that would inhibit viral reactivation was determined in a preliminary experiment in which groups of mice were injected intraperitoneally with 0.1, 0.5, 1.0, and 5.0 mg of celecoxib four times daily. The mice were treated one day before heat stress and the day of the heat stress. […] This dosage was used in all subsequent experiments.
(§8) Two days prior to hyperthermic stress, uninfected mice and latently infected mice were treated four times daily with celecoxib at a concentration of 0.5 mg per treatment. […] Units of Infectious virus were recorded as units of cytopathic effect over a period of seven days. […] The units of cytopathic effect were recorded over a seven day incubation period. […]

McKrae strain of HSV-1 [5] = experiment: Heat-stress reactivation of latent HSV-1 in mice: infectious virus on the ocular surface (celecoxib); conditions: not stressed
Excerpt: as §6, §7, §8

McKrae strain of HSV-1 [6] = experiment: Preliminary dose-finding experiment for inhibition of viral reactivation by celecoxib; conditions: IP four times daily; 0.1, 0.5, 1.0 and 5.0 mg tested; one day before and day of heat stress
Description: as §7

[7] = Cornea, ASA from time of hyperthermic stress, 24 h after stress
[8] = Prophylactic ASA IP, 3 days prior to stress, cornea, 24 hrs after stress
[9] = Prophylactic ASA IP, 3 days prior to stress, trigeminal ganglia, 24 hrs after stress
[10] = Prophylactic ASA oral gavage 0.1 mg, 3 days prior to stress, cornea, 24 hrs after stress
[11] = Prophylactic ASA oral gavage 0.1 mg, 3 days prior to stress, trigeminal ganglia, 24 hrs after stress
[12] = Trigeminal ganglia, ASA from time of hyperthermic stress, 24 h after stress
[13] = Experiment 1, heat stressed, ASA 0.1 mg IP after stress and at 8 and 16 h, swabs 24 hrs after heat stress
[14] = Experiment 1, latent mice not stressed, ASA-treated
[15] = Experiment 2, heat stressed, ASA 0.1 mg IP after stress and at 8 and 16 h, swabs 24 hrs after heat stress
[16] = Experiment 2, latent mice not stressed, ASA-treated
[17] = Experiment 3, heat stressed, ASA 0.1 mg IP after stress and at 8 and 16 h, swabs 24 hrs after heat stress
[18] = Experiment 3, latent mice not stressed, ASA-treated
[19] = 0.5 mg celecoxib four times daily IP for two days
[20] = 0.5 mg celecoxib four times daily orally for two days

For `CC(=O)Oc1ccccc1C(=O)O` [ASA, acetylsalicylic acid], the “Viral DNA (genome equivalents)” value (McKrae strain of HSV-1 [1]; ASA prophylaxis prior to heat stress, heat stressed, TG) was 4.9 × 10^4 genome equivalents, the “Viral DNA (genome equivalents)” value (McKrae strain of HSV-1 [1]; ASA prophylaxis prior to heat stress, heat stressed, cornea) was 0.4 × 10^4 genome equivalents and the “Viral DNA (genome equivalents)” value (McKrae strain of HSV-1 [1]; ASA prophylaxis schedule, not stressed, TG) was 2.3 × 10^2 genome equivalents. For the same molecule, the “Viral DNA (genome equivalents)” value (McKrae strain of HSV-1 [1]; ASA prophylaxis schedule, not stressed, cornea) was <1 × 10^2 genome equivalents, the “Viral DNA (genome equivalents)” value (McKrae strain of HSV-1 [1]; Heat stressed, TG, ASA from time of stress) was 2.1 × 10^4 genome equivalents and the “Viral DNA (genome equivalents)” value (McKrae strain of HSV-1 [1]; Heat stressed, cornea, ASA from time of stress) was 0.9 × 10^3 genome equivalents. The “Viral DNA (genome equivalents)” value (McKrae strain of HSV-1 [1]; Not stressed, TG, ASA-treated) was 1.5 × 10^2 genome equivalents, the “Viral DNA (genome equivalents)” value (McKrae strain of HSV-1 [1]; Not stressed, cornea, ASA-treated) was <1 × 10^2 genome equivalents and the “Infectious Virus (no. positive/total), cornea homogenates” value (McKrae strain of HSV-1 [2]; [7]) was 5/36. The “Percent of cornea homogenate cultures which contained virus” value (McKrae strain of HSV-1 [2]; [7]) was “(14%)”, the “Infectious Virus (no. positive/total), cornea homogenates” value (McKrae strain of HSV-1 [2]; [8]) was 2/10 and the “Percent of cornea homogenate cultures which contained virus” value (McKrae strain of HSV-1 [2]; [8]) was 20%. The “Infectious Virus (no. positive/total), trigeminal ganglia homogenates” value (McKrae strain of HSV-1 [2]; [9]) was 3/10, the “Percent of trigeminal ganglia homogenate cultures which contained virus” value (McKrae strain of HSV-1 [2]; [9]) was 30% and the “Infectious Virus (no. positive/total), cornea homogenates” value (McKrae strain of HSV-1 [2]; [10]) was 2/14. The “Percent of cornea homogenate cultures which contained virus” value (McKrae strain of HSV-1 [2]; [10]) was 14%, the “Infectious Virus (no. positive/total), trigeminal ganglia homogenates” value (McKrae strain of HSV-1 [2]; [11]) was 4/14 and the “Percent of trigeminal ganglia homogenate cultures which contained virus” value (McKrae strain of HSV-1 [2]; [11]) was 29%. For the same molecule, the “Infectious Virus (no. positive/total), trigeminal ganglia homogenates” value (McKrae strain of HSV-1 [2]; [12]) was 8/36, the “Percent of trigeminal ganglia homogenate cultures which contained virus” value (McKrae strain of HSV-1 [2]; [12]) was “(22%)” and the “Levels of infectious virus in ocular tear film compared to placebo-treated mice” value (McKrae strain of HSV-1 [3]; ASA IP or orally for three days prior to hyperthermic stimulus, data not shown) was “significantly lower”. For the same molecule, the “Infectious Virus (no. positive/total), ocular surface swabs” value (McKrae strain of HSV-1 [3]; [13]) was 2/12, the “Percent of ocular swab cultures which contained virus” value (McKrae strain of HSV-1 [3]; [13]) was “(17%)” and the “Infectious Virus (no. positive/total), ocular surface swabs” value (McKrae strain of HSV-1 [3]; [14]) was 0/10. For the same molecule, the “Percent of ocular swab cultures which contained virus” value (McKrae strain of HSV-1 [3]; [14]) was “(0%)”, the “Infectious Virus (no. positive/total), ocular surface swabs” value (McKrae strain of HSV-1 [3]; [15]) was 3/12 and the “Percent of ocular swab cultures which contained virus” value (McKrae strain of HSV-1 [3]; [15]) was “(25%)”. For the same molecule, the “Infectious Virus (no. positive/total), ocular surface swabs” value (McKrae strain of HSV-1 [3]; [16]) was 0/8, the “Percent of ocular swab cultures which contained virus” value (McKrae strain of HSV-1 [3]; [16]) was “(0%)” and the “Infectious Virus (no. positive/total), ocular surface swabs” value (McKrae strain of HSV-1 [3]; [17]) was 3/12. For the same molecule, the “Percent of ocular swab cultures which contained virus” value (McKrae strain of HSV-1 [3]; [17]) was “(25%)”, the “Infectious Virus (no. positive/total), ocular surface swabs” value (McKrae strain of HSV-1 [3]; [18]) was 0/10 and the “Percent of ocular swab cultures which contained virus” value (McKrae strain of HSV-1 [3]; [18]) was “(0%)”.

`Cc1ccc(-c2cc(C(F)(F)F)nn2-c2ccc(S(N)(=O)=O)cc2)cc1` [celecoxib] was tested, and the “Infectious Virus in the Trigeminal Ganglia (mice positive/total)” value (McKrae strain of HSV-1 [4]; [19]) was 0/12, the “Infectious Virus in the Trigeminal Ganglia (mice positive/total)” value (McKrae strain of HSV-1 [4]; [20]) was 0/10 and the “Infectious Virus on the Ocular Surface (mice positive/total)” value (McKrae strain of HSV-1 [5]; [19]) was 0/12. The “Infectious Virus on the Ocular Surface (mice positive/total)” value (McKrae strain of HSV-1 [5]; [20]) was 0/14 and the “Most effective dose in preventing viral recurrence” value (McKrae strain of HSV-1 [6]) was 0.5 mg.
